Among the data in US20260297085A1, “1 H-PYRROLO[2,3-B]PYRIDIN-4-YL]-2-OXOPYRROLIDINE-3-CARBONITRILE DERIVATIVES AS TYROSINE KINASE 2 (TYK2) INHIBITORS FOR THE TREATMENT OF INFLAMMATORY DISEASES” (BIOGEN MA INC., priority 2023, published 2026) are IC50 values, retold here.

Test [1] deals with T1, human TYK2 kinase domain (JH1) (Homo sapiens, UniProt P29597).
T1 construct: recombinantly generated catalytic kinase (also known as JH1) domain of human JAK1, JAK2, JAK3 and TYK2
T1 sequence (P29597 897-1176 limits assumed): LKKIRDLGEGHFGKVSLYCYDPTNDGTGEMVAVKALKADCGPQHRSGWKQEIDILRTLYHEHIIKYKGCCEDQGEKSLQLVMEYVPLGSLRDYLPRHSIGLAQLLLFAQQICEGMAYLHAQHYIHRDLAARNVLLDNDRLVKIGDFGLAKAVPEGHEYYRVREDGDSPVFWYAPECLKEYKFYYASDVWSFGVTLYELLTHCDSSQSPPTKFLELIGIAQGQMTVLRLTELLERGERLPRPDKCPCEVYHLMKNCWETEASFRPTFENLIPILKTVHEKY
The test is described as follows: JH1 biochemical assay for TYK2 (ADP-Glo kinase assay, recombinant JH1 catalytic domain, JAK3-974 peptide, 10 μM ATP). The following applies: TYK2 JH1, ADP-Glo. An outline of the steps: (§1)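 Kinase 4 nM JAK1 / 0.2 nM JAK2 / 0.3 nM JAK3 / 2 nM TYK2; 50 μM peptide; 100 min. Unused ATP depleted, ADP→ATP, luciferase luminescence. 11-pt 3-fold series from 10 or 1 μM; normalized, 4PL fit → IC50.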

The target in test [2] is T2, human JAK1 kinase domain (JH1) (Homo sapiens, UniProt P23458).
T2 construct: recombinantly generated catalytic kinase (also known as JH1) domain of human JAK1, JAK2, JAK3 and TYK2
T2 sequence (P23458 875-1153 limits assumed): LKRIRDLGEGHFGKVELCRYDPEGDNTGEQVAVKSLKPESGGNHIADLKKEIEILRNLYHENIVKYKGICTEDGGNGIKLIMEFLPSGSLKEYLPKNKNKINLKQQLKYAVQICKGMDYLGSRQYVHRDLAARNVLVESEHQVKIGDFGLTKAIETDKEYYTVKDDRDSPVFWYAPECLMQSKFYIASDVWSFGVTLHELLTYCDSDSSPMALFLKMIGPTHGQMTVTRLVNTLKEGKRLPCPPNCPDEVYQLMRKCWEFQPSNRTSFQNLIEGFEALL
The test is described as follows: JH1 biochemical assay for JAK1 (ADP-Glo kinase assay, recombinant JH1 catalytic domain, JAK3-342 peptide, 35 μM ATP). As to conditions: JAK1 JH1, ADP-Glo. In short, it runs like this:
as §1

In test [3] the target is T3, human JAK2 kinase domain (JH1) (Homo sapiens, UniProt O60674).
T3 construct: recombinantly generated catalytic kinase (also known as JH1) domain of human JAK1, JAK2, JAK3 and TYK2
T3 sequence (O60674 849-1124 limits assumed): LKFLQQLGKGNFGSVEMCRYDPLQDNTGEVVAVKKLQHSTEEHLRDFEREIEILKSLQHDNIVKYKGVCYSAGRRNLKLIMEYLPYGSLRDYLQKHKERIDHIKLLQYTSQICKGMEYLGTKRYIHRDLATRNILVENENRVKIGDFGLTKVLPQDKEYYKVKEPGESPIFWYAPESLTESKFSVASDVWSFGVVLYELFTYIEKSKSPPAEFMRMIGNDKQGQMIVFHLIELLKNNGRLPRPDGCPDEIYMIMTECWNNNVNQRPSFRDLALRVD
Kind of test: JH1 biochemical assay for JAK2 (ADP-Glo kinase assay, recombinant JH1 catalytic domain, JAK3-974 peptide, 15 μM ATP). As to conditions: JAK2 JH1, ADP-Glo. An outline of the steps:
as §1

Test [4] has as its target T4, human JAK3 kinase domain (JH1) (Homo sapiens, UniProt P52333).
T4 construct: recombinantly generated catalytic kinase (also known as JH1) domain of human JAK1, JAK2, JAK3 and TYK2
The test is described as follows: JH1 biochemical assay for JAK3 (ADP-Glo kinase assay, recombinant JH1 catalytic domain, JAK3-974 peptide, 4 μM ATP). As to conditions: JAK3 JH1, ADP-Glo. In short, it runs like this:
as §1

Test [5] addresses Tyk2 kinase activity on STAT4 in NK92 cells (Homo sapiens, UniProt P29597). The test is described as follows: pSTAT4 cell assay (MSD; NK92 cells, 30 ng/mL IL2 stimulation). The format is cell-based. The following applies: 30 ng/mL IL2, 15 minutes. In short, it runs like this:
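Read-out: phospho-STAT in NK92 lysates, MSD format, anti-STAT4 antibodies. Cells were serum-starved, given compound for 1 hr (10 μM top, four-fold, 10 points) and IL2-stimulated (30 ng/mL, 15 min). Normalized percent activity vs log concentration, 4-parameter logistic fit gave IC50.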

For test [6], the target named is JAK2 kinase activity on STAT5 in TF1 cells (Homo sapiens, UniProt O60674). The test is described as follows: pSTAT5 cell assay (MSD; TF1 cells, 30 ng/mL IL-3 stimulation). The following applies: 30 ng/mL IL-3, 15 minutes. The class given is cell-based. An outline of the steps:
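IC50 from a 4-parameter logistic fit of normalized pSTAT5 signal, measured by MSD in lysates of TF1 cells. Cells were serum-starved, exposed to compound for 1 h (top concentration 10 μM, four-fold, 10 points), then given IL-3 at 30 ng/mL for 15 min.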

Test [7] deals with JAK1 kinase activity on STAT3 in TF1 cells (Homo sapiens, UniProt P23458). The test is described as follows: pSTAT3 cell assay (MSD; TF1 cells, 30 ng/mL IL-6 stimulation). The following applies: 30 ng/mL IL-6, 15 minutes. The class given is cell-based. In short, it runs like this: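 IC50 values derive from 4-parameter logistic fits of normalized pSTAT3 signal, measured by MSD with anti-STAT3 antibodies. TF1 cells, serum-starved beforehand, received compound for 1 hour (top concentration 10 μM, four-fold steps, 10 points) before a 15-minute IL-6 (30 ng/mL) stimulus.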
Sequence of JAK1 kinase activity on STAT3 in TF1 cells (P23458 whole entry): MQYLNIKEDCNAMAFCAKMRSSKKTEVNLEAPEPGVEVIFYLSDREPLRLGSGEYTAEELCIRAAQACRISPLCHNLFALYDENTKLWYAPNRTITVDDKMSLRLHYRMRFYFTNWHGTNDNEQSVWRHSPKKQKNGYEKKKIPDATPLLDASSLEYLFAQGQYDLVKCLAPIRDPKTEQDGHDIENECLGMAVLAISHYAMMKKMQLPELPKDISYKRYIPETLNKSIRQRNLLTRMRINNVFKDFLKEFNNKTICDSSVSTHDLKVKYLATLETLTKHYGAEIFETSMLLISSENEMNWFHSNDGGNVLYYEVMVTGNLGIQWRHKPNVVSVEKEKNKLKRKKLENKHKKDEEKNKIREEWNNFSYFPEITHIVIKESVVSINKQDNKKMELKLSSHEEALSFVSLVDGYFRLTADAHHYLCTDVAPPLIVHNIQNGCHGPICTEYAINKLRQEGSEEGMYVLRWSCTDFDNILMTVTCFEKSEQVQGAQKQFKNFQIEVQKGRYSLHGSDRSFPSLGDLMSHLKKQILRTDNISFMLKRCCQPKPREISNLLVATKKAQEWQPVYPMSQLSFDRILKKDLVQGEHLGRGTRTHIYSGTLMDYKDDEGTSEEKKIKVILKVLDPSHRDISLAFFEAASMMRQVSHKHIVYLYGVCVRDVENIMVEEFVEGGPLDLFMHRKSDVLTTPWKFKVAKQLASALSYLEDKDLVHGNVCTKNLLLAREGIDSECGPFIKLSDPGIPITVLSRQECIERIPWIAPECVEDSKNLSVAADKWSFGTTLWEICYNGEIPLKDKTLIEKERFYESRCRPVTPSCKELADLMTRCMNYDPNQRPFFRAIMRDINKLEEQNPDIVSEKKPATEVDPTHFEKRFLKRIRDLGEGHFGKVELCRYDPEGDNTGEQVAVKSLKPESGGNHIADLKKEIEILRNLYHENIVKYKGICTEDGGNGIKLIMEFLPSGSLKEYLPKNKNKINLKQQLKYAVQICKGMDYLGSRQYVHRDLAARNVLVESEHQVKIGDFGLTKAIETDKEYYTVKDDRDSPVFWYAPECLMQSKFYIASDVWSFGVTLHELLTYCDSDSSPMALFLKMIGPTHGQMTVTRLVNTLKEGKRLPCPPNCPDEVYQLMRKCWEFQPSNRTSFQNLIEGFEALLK

T4 sequence (P52333 822-1111 limits assumed): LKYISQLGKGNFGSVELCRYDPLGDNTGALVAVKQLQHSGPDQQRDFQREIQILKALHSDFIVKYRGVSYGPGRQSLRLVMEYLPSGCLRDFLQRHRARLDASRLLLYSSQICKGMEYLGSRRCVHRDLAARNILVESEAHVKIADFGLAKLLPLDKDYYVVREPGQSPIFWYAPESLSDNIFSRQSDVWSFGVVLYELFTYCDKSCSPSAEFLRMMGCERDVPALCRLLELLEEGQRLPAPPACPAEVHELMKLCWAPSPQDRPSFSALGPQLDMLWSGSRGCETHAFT
Sequence of Tyk2 kinase activity on STAT4 in NK92 cells (P29597 whole entry): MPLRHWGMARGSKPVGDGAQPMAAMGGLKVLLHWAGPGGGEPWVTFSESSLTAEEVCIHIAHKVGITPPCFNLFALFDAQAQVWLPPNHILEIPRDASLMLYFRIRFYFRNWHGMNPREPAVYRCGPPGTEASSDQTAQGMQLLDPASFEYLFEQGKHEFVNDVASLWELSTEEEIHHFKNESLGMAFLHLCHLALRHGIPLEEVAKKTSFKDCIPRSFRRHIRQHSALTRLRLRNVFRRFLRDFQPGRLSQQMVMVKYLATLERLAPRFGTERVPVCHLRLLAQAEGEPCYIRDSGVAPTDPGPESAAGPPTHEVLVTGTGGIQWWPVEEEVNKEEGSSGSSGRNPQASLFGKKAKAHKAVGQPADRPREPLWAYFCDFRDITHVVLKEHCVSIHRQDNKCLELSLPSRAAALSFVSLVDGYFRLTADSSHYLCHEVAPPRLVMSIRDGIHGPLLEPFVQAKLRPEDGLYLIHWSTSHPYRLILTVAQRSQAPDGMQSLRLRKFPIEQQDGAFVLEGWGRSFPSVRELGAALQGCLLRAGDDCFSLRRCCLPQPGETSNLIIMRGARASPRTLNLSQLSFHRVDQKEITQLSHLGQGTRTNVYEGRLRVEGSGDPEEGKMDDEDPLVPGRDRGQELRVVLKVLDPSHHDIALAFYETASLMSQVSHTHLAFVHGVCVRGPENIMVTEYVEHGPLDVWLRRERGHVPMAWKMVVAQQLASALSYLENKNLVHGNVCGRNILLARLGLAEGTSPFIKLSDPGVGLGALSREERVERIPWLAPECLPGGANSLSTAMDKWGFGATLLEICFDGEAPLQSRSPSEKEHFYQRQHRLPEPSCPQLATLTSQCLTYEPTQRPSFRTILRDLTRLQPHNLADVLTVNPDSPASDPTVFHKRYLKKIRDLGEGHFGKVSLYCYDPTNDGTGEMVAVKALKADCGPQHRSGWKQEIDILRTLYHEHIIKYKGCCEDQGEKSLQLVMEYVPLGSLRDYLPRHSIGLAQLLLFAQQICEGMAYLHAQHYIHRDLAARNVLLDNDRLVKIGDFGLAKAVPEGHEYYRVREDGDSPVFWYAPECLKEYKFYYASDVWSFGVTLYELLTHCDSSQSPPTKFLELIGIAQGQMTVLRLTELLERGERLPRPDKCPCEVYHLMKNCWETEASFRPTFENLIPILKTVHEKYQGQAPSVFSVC
Sequence of JAK2 kinase activity on STAT5 in TF1 cells (O60674 whole entry): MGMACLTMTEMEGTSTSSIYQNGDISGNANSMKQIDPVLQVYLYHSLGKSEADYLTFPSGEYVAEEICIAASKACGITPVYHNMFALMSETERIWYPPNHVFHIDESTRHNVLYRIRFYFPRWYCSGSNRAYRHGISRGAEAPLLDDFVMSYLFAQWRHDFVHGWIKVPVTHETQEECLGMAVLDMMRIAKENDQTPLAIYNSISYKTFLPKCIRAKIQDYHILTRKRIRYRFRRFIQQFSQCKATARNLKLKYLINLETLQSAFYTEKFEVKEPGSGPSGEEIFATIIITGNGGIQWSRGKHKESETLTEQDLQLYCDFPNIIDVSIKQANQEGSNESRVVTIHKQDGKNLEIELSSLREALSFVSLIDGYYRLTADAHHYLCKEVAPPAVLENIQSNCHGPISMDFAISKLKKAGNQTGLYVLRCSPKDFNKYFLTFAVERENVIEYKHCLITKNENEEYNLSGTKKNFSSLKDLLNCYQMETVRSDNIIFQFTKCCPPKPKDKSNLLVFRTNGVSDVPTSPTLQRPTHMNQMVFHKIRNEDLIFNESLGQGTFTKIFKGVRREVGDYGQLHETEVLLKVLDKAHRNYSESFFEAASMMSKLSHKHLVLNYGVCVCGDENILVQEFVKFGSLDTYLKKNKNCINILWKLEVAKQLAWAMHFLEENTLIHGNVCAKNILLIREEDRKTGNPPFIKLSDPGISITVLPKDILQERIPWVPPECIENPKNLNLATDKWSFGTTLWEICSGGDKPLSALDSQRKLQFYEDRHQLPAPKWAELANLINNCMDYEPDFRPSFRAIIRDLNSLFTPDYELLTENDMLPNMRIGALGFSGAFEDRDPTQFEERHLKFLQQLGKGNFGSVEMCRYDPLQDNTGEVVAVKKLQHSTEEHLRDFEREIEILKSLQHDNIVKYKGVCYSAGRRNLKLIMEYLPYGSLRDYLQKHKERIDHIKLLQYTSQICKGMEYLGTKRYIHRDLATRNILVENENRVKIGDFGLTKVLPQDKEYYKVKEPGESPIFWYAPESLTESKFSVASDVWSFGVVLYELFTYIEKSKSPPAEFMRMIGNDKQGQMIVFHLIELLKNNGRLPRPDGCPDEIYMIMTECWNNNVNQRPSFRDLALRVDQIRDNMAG

Consider `C[C@@H]1CN(c2ccnn3cc(-c4cnn(C5CCN(C)C5)c4)cc23)C(=O)[C@]1(C#N)C1CC1` (stereo partly drawn) [Example 332, (3R,4S)-3-cyclopropyl-4-methyl-1-(6-(1-(1-methylpyrrolidin-3-yl)-1H-pyrazol-4-yl)pyrrolo[1,2-b]pyridazin-4-yl)-2-oxopyrrolidine-3-carbonitrile], for which the IC50 in test [1] is less than 0.005 µM; in test [2], 0.1 to 1 µM; in test [3], 0.1 to 1 µM; in test [4], less than 0.1 µM; in test [5], 0.05 to 0.1 µM; in test [6] it was 1 to 5 µM. The half-inhibitory concentration (IC50) in test [7] was in the range of 1 to 5 µM.
For the compound `Cc1cnn(-c2cc3c(N4C[C@@H](C)[C@@](C#N)(C5CC5)C4=O)ccnn3c2)c1` [Example 333, (3R,4S)-3-cyclopropyl-4-methyl-1-(6-(4-methyl-1H-pyrazol-1-yl)pyrrolo[1,2-b]pyridazin-4-yl)-2-oxopyrrolidine-3-carbonitrile], the IC50 is 0.005 to 0.02 µM in test [1]; 0.1 to 1 µM in test [2]; 0.1 to 1 µM in test [3]; 0.1 to 1 µM in test [4]; more than 0.1 µM in test [5]; more than 10 µM in test [6]. Besides, the IC50 in test [7] is more than 10 µM.
With `Cc1ccn(-c2cc3c(N4C[C@@H](C)[C@@](C#N)(C5CC5)C4=O)ccnn3c2)n1` [Example 334, (3R,4S)-3-cyclopropyl-4-methyl-1-(6-(3-methyl-1H-pyrazol-1-yl)pyrrolo[1,2-b]pyridazin-4-yl)-2-oxopyrrolidine-3-carbonitrile], the IC50 in test [1] is 0.02 to 0.05 µM; in test [2] it was 1 to 5 µM; in test [3], 1 to 5 µM; in test [4], 0.1 to 1 µM; in test [5], more than 0.1 µM; in test [6], more than 10 µM. In test [7], this compound had an IC50 of more than 10 µM.
As for `C[C@@H]1CN(c2ccnn3cc(-n4cccn4)cc23)C(=O)[C@]1(C#N)C1CC1` [Example 335, (3R,4S)-1-(6-(1H-pyrazol-1-yl)pyrrolo[1,2-b]pyridazin-4-yl)-3-cyclopropyl-4-methyl-2-oxopyrrolidine-3-carbonitrile], the half-maximal inhibitory concentration (IC50) was 0.02 to 0.05 µM in test [1]; 0.1 to 1 µM in test [2]; 1 to 5 µM in test [3]; 0.1 to 1 µM in test [4]; more than 0.1 µM in test [5]; more than 10 µM in test [6]. For the same compound, the half-inhibitory concentration (IC50) in test [7] is more than 10 µM.
On to `C[C@@H]1CN(c2ccnn3cc(-n4ccnc4)cc23)C(=O)[C@]1(C#N)C1CC1` [Example 336, (3R,4S)-1-(6-(1H-imidazol-1-yl)pyrrolo[1,2-b]pyridazin-4-yl)-3-cyclopropyl-4-methyl-2-oxopyrrolidine-3-carbonitrile], for which the IC50 is 0.02 to 0.05 µM in test [1]; 0.1 to 1 µM in test [2]; 1 to 5 µM in test [3]; 0.1 to 1 µM in test [4]; more than 0.1 µM in test [5]; more than 10 µM in test [6]. This compound also yielded a half-maximal inhibitory concentration (IC50) in test [7] of more than 10 µM.
As for `Cc1cn(-c2cc3c(N4C[C@@H](C)[C@@](C#N)(C5CC5)C4=O)ccnn3c2)cn1` [Example 341, (3R,4S)-3-cyclopropyl-4-methyl-1-(6-(4-methyl-1H-imidazol-1-yl)pyrrolo[1,2-b]pyridazin-4-yl)-2-oxopyrrolidine-3-carbonitrile], the IC50 in test [1] was 0.005 to 0.02 µM; in test [2] it was 0.1 to 1 µM; in test [3], 0.1 to 1 µM; in test [4], 0.1 to 1 µM; in test [5], more than 0.1 µM; in test [6], 5 to 10 µM. Also, the half-inhibitory concentration (IC50) in test [7] lay within 1 to 5 µM.
Regarding `C[C@@H]1CN(c2ccnc3cc(-c4cnn(C56CC(C5)C6)c4)oc23)C(=O)[C@]1(C#N)C1CC1` [Example 344, (3R,4S)-1-(2-(1-(bicyclo[1.1.1]pentan-1-yl)-1H-pyrazol-4-yl)furo[3,2-b]pyridin-7-yl)-3-cyclopropyl-4-methyl-2-oxopyrrolidine-3-carbonitrile], the IC50 is less than 0.005 µM in test [1]; 0.1 to 1 µM in test [2]; 0.1 to 1 µM in test [3]; less than 0.1 µM in test [4]; more than 0.1 µM in test [5]; 1 to 5 µM in test [6]. In test [7], this compound came in with an IC50 of 0.1 to 1 µM.
Regarding `CC(C)n1cc(-c2cc3nccc(N4C[C@@H](C)[C@@](C#N)(C5CC5)C4=O)c3o2)cn1` [Example 346, (3R,4S)-3-cyclopropyl-1-(2-(1-isopropyl-1H-pyrazol-4-yl)furo[3,2-b]pyridin-7-yl)-4-methyl-2-oxopyrrolidine-3-carbonitrile], the half-inhibitory concentration (IC50) is less than 0.005 µM in test [1]; less than 0.1 µM in test [2]; 0.1 to 1 µM in test [3]; less than 0.1 µM in test [4]; more than 0.1 µM in test [5]; 1 to 5 µM in test [6]. Also, in test [7], the half-inhibitory concentration (IC50) was in the range of 1 to 5 µM.
For the compound `C[C@@H]1CN(c2ccnc3cc(-c4cnn(C5CC5)c4)oc23)C(=O)[C@]1(C#N)C1CC1` [Example 347, (3R,4S)-3-cyclopropyl-1-(2-(1-cyclopropyl-1H-pyrazol-4-yl)furo[3,2-b]pyridin-7-yl)-4-methyl-2-oxopyrrolidine-3-carbonitrile], the IC50 was less than 0.005 µM in test [1]; 0.1 to 1 µM in test [2]; 0.1 to 1 µM in test [3]; 0.1 to 1 µM in test [4]; more than 0.1 µM in test [5]; 5 to 10 µM in test [6]. Further, in test [7], the IC50 lay within 1 to 5 µM.
On to `C[C@@H]1CN(c2cc(-c3cnn(C4COC4)c3)cc3ncsc23)C(=O)[C@]1(C#N)C1CC1` [Example 348, (3R,4S)-3-cyclopropyl-4-methyl-1-(5-(1-(oxetan-3-yl)-1H-pyrazol-4-yl)benzo[d]thiazol-7-yl)-2-oxopyrrolidine-3-carbonitrile], for which the IC50 in test [1] was less than 0.005 µM; in test [2], less than 0.1 µM; in test [3] it was less than 0.1 µM; in test [4], less than 0.1 µM; in test [5] it was 0.05 to 0.1 µM; in test [6], 0.1 to 1 µM. For the same compound, in test [7], the IC50 was in the range of 0.1 to 1 µM.
For the compound `C[C@@H]1CN(c2cc(-c3cnn(C(F)F)c3)cc3ncsc23)C(=O)[C@]1(C#N)C1CC1` [Example 349, (3R,4S)-3-cyclopropyl-1-(5-(1-(difluoromethyl)-1H-pyrazol-4-yl)benzo[d]thiazol-7-yl)-4-methyl-2-oxopyrrolidine-3-carbonitrile], the IC50 in test [1] was less than 0.005 µM; in test [2], less than 0.1 µM; in test [3] it was 0.1 to 1 µM; in test [4] it was less than 0.1 µM; in test [5], more than 0.1 µM; in test [6] it was 1 to 5 µM. For the same compound, the 50% inhibitory concentration (IC50) in test [7] lay within 0.1 to 1 µM.
On to `C[C@@H]1CN(c2cc(-c3cnn(C)c3)cc3ncsc23)C(=O)[C@]1(C#N)C1CC1` [Example 350, (3R,4S)-3-cyclopropyl-4-methyl-1-(5-(1-methyl-1H-pyrazol-4-yl)benzo[d]thiazol-7-yl)-2-oxopyrrolidine-3-carbonitrile], for which the half-inhibitory concentration (IC50) is less than 0.005 µM in test [1]; less than 0.1 µM in test [2]; 0.1 to 1 µM in test [3]; less than 0.1 µM in test [4]; 0.05 to 0.1 µM in test [5]; 1 to 5 µM in test [6]. In test [7], this compound registered a 50% inhibitory concentration (IC50) of 0.1 to 1 µM.
`C[C@@H]1CN(c2nc(-c3cnn(C(F)F)c3)cc3ncsc23)C(=O)[C@]1(C#N)C1CC1` [Example 353, (3R,4S)-3-cyclopropyl-1-(6-(1-(difluoromethyl)-1H-pyrazol-4-yl)thiazolo[5,4-c]pyridin-4-yl)-4-methyl-2-oxopyrrolidine-3-carbonitrile]: the IC50 in test [1] was less than 0.005 µM; in test [2], less than 0.1 µM; in test [3], less than 0.1 µM; in test [4] it was less than 0.1 µM; in test [5], 0.02 to 0.05 µM; in test [6], 0.1 to 1 µM. Also, the 50% inhibitory concentration (IC50) in test [7] was less than 0.1 µM.
